SMILES strings stand for the structures.

One may read the IC50 as the concentration that gives 50% inhibition. Higher therefore signals lower potency.

For the assay, the target named is Mitogen-activated protein kinase 14 (Homo sapiens, UniProt Q16539). Put plainly: Inhibition of p38-alpha MAP kinase.
Sequence of Mitogen-activated protein kinase 14 (Q16539 whole entry): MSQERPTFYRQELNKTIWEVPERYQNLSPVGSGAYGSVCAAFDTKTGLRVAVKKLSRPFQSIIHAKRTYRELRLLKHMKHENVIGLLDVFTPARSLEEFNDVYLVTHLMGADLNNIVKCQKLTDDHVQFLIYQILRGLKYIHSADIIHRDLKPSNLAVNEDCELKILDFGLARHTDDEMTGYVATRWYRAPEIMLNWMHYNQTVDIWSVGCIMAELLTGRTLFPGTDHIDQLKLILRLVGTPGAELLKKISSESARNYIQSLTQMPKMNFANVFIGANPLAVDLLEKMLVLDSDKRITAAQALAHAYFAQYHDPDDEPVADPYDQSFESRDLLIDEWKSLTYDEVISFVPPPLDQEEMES
With `CN(C)C(=O)C(=O)c1cn(C)c2cc(Cl)c(C(=O)N3CCc4c(ncnc4-c4ccc(F)cc4F)C3)cc12`, the IC50 worked out at 195 nM.

Take `O=C(c1ccc(F)cc1F)N1CCn2c(cnc2-c2ccc(F)cc2F)C1`: half-maximal inhibition (IC50) was put at 593 nM.

For `Cn1ccc2cc(C(=O)N3CCc4c(cnn4-c4ccccc4Cl)C3)c(Cl)cc21`, the IC50 is 26 nM.

For `COc1nc2c(cc1C(=O)N1CCn3c(cnc3-c3ccc(F)cc3F)C1)c(C(=O)C(=O)N1CCC(O)C1)cn2C` (racemic), inhibition was half-maximal at 16 nM (IC50).

`O=C(c1c(F)cccc1F)N1CCc2c(cnn2-c2ccc(F)cc2Cl)C1` registered an IC50 of 97 nM. This IC50 is about 6.1-fold higher than that of the molecule before.

Molecule `CN(C)C(=O)C(=O)c1c[nH]c2cc(Cl)c(C(=O)N3CCn4c(cnc4-c4ccc(F)cc4F)C3)cc12` yielded an IC50 of 11 nM. Against the preceding molecule, the IC50 is about 8.8-fold lower.

Molecule `CN(C)C(=O)C(=O)c1c[nH]c2ccc(C(=O)N3CCc4c(cnn4-c4ccccc4Cl)C3)cc12` showed an IC50 of 37 nM.

For `COc1cc2c(ccn2C)cc1C(=O)N1CCn2c(cnc2-c2ccc(F)cc2F)C1`, half-maximal inhibition (IC50) required 38 nM. The IC50 values of the last two molecules are within 1.5-fold of each other.

`CC(C)n1ccc2cc(C(=O)N3CCc4c(cnn4-c4ccccc4Cl)C3)ccc21` gave an IC50 of 39 nM. This IC50 and that of the molecule before are within 1.5-fold of each other.

In the case of `COc1cc2c(cc1C(=O)N1CCn3c(cnc3-c3ccc(F)cc3F)C1)c(C(=O)C(=O)N(C)C)cn2C`, the IC50 stood at 13 nM.

Molecule `Cn1ccc2cc(C(=O)N3CCn4c(cnc4-c4ccc(F)cc4F)C3)c(Cl)cc21` returned a 50% inhibitory concentration (IC50) of 50 nM.

Turning to `COc1nc2[nH]ccc2cc1C(=O)N1CCn2c(cnc2-c2ccc(F)cc2F)C1`, half-maximal inhibition (IC50) required 164 nM.

`COc1nc2[nH]ccc2cc1C(=O)N1CCc2c(cnn2-c2ccccc2Cl)C1`: the IC50 came to 137 nM.

Turning to `O=C(c1cc2ccccc2[nH]1)N1CCc2c(cnn2-c2ccccc2Cl)C1`, half-maximal inhibition (IC50) was put at 154 nM.

Molecule `Cn1ccc2cc(C(=O)N3CCc4c(cnn4-c4ccccc4Cl)C3)ccc21` gave an IC50 of 30 nM. Compared with the last molecule, the IC50 is about 5.1-fold lower.

Consider `O=C(c1c(Cl)cccc1Cl)N1CCc2c(cnn2-c2ccccc2Cl)C1`, for which the IC50 stood at 112 nM. Compared with the last molecule, the IC50 is about 3.7-fold higher.

`O=C(c1cccc2[nH]ccc12)N1CCc2c(cnn2-c2ccccc2Cl)C1` yielded an IC50 of 37 nM. Against the preceding molecule, the IC50 is about 3-fold lower.

`O=C(c1c[nH]c2ccccc12)N1CCc2c(cnn2-c2ccccc2Cl)C1` registered an IC50 of 55 nM.

Molecule `O=C(c1c(F)cccc1F)N1CCc2c(cnn2-c2ccccc2Cl)C1` had an IC50 of 68 nM.

Turning to `O=C(c1ccc2cc[nH]c2c1)N1CCc2c(cnn2-c2ccccc2Cl)C1`, the half-maximal inhibitory concentration (IC50) was found to be 40 nM.

Regarding `COc1nc2[nH]cc(C(=O)C(=O)N(C)C)c2cc1C(=O)N1CCn2c(cnc2-c2ccc(F)cc2F)C1`, the IC50 is 29 nM. The IC50 values of the last two molecules are within 1.5-fold of each other.

In turn, `CN(C)C(=O)C(=O)c1cn(C)c2cc(Cl)c(C(=O)N3CCc4c(cnn4-c4ccccc4Cl)C3)cc12` had an IC50 of 33 nM.

For `Cn1cc(C(=O)N2CCc3c(cnn3-c3ccccc3Cl)C2)c2ccccc21`, the midpoint of inhibition, the IC50, lay at 40 nM.

Molecule `O=C(c1c(F)cccc1F)N1CCn2c(cnc2-c2ccc(F)cc2F)C1` displayed an IC50 of 167 nM.

`COc1nc2[nH]cc(C(=O)C(=O)N(C)C)c2cc1C(=O)N1CCc2c(cnn2-c2ccccc2Cl)C1` came in with an IC50 of 29 nM.

`CN(C)C(=O)C(=O)c1cn(C)c2cc(Cl)c(C(=O)N3CCn4c(cnc4-c4ccc(F)cc4F)C3)cc12`: the IC50 stood at 14 nM.

(Values after ChEMBL document CHEMBL1146251, “Synthesis and SAR of p38alpha MAP kinase inhibitors based on heterobicyclic scaffolds” (Bioorg Med Chem Lett, 2007).)
